One assay has as its target hQC (Homo sapiens, UniProt Q16769). In words: Fluorometric (fluorescent) assay of hQC inhibition, IC50. Format: biochemical. To be noted: hQC inhibition; read-out: IC50. In short, it runs like this: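 Two coupled fluorometric formats at 30° C, pH 8.0 Tris/HCl with EDTA: H-Gln-βNA at 0.2 mM read at 320/410 nm, or H-Gln-AMC at varied levels read at 380/460 nm, each started by adding QC.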
Chain of hQC (Q16769 29-361): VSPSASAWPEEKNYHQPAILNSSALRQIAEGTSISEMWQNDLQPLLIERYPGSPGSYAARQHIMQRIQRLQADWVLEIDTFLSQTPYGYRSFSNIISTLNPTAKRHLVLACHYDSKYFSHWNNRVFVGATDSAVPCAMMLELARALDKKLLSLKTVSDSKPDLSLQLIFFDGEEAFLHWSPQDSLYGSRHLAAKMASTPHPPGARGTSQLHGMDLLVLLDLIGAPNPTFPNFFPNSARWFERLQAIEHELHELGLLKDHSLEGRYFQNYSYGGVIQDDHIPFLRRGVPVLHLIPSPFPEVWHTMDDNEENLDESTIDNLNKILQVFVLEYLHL
For orientation: IC50 means the concentration needed to halve the response being measured. As to `Clc1ccc(Cn2nnnc2C(Nc2ccc3[nH]cnc3c2)c2ccc(Cl)cc2)cc1` (stereo not shown) [compound 136, (1H-Benzoimidazol-5-yl)-[[1-(4-chloro-benzyl)-1H-tetrazol-5-yl]-(4-chloro-phenyl)-methyl]-amine], the concentration for half-maximal inhibition (IC50) was 4 µM. Turning to `Brc1cc(Br)cc(C(Nc2ccc3[nH]cnc3c2)c2nnnn2CCCCc2ccccc2)c1` (stereo not shown) [compound 189, (1H-Benzoimidazol-5-yl)-{(3,5-dibromo-phenyl)-[1-(4-phenyl-butyl)-1H-tetrazol-5-yl]-methyl}-amine], the IC50 stood at 3.1 µM. With `CC(Cc1ccc2c(c1)OCO2)C(Nc1ccc2[nH]cnc2c1)c1nnnn1C1CCCCC1` (stereo not shown) [compound 116, [3-Benzo[1,3]dioxol-5-yl-1-(1-cyclohexyl-1H-tetrazol-5-yl)-2-methyl-propyl]-(1H-benzoimidazol-5-yl)-amine], the IC50 stood at 7.6 µM. For the compound `Clc1ccc(Cn2nnnc2C(Nc2ccc3[nH]cnc3c2)c2ccc3c(c2)OCO3)cc1` (stereo not shown) [compound 160, {Benzo[1,3]dioxol-5-yl-[1-(4-chloro-benzyl)-1H-tetrazol-5-yl]-methyl}-(1H-benzoimidazol-5-yl)-amine], the IC50 was determined as 0.4 µM.

As for `c1ccc(Oc2ccc(-n3nnnc3C(Nc3ccc4[nH]cnc4c3)c3ccc4c(c3)OCO4)cc2)cc1` (stereo not shown) [compound 139, {Benzo[1,3]dioxol-5-yl-[1-(4-phenoxy-phenyl)-1H-tetrazol-5-yl]-methyl}-(1H-benzoimidazol-5-yl)-amine], the IC50 was 4 µM.

The assay is the same for the next values; noted with them: read-out: IC50.
In the case of `COCCn1nnnc1C(NCCCn1ccnc1)c1cc(C)c(C)cc1C` (stereo not shown) [compound 43, (3-Imidazol-1-yl-propyl)-[[1-(2-methoxy-ethyl)-1H-tetrazol-5-yl]-(2,4,5-trimethyl-phenyl)-methyl]-amine], the IC50 amounted to 7.6 µM.

For the compound `COc1ccc(C(Nc2ccc3[nH]cnc3c2)c2nnnn2C2CCCCC2)cc1` (stereo not shown) [compound 72, (1H-Benzoimidazol-5-yl)-[(1-cyclohexyl-1H-tetrazol-5-yl)-(4-methoxy-phenyl)-methyl]-amine], the IC50 was 2.2 µM. Still for that read-out and setting: as for `c1nc2cc(NC(c3ccc4nsnc4c3)c3nnnn3CC3CCCO3)ccc2[nH]1` (stereo not shown) [compound 105], the figure is 4.9 µM; as for `CC(C)(C)OC(=O)Cn1nnnc1C(Nc1ccc2[nH]cnc2c1)c1ccc(Cl)c(F)c1` (stereo not shown) [compound 91, {5-[(1H-Benzoimidazol-5-ylamino)-(4-chloro-3-fluoro-phenyl)-methyl]-tetrazol-11-yl}-acetic acid tert-butyl ester], 4 µM. With `N#Cc1cc(C(NCCCn2ccnc2)c2nnnn2Cc2ccc(Cl)cc2)ccc1F` (stereo not shown) [compound 5, 5-[[1-(4-Chloro-benzyl)-1H-tetrazol-5-yl]-(3-imidazol-1-yl-propylamino)-methyl]-2-fluoro-benzonitrile], the half-maximal inhibitory concentration (IC50) was found to be 6.7 µM.

The values are drawn from patent US7741354B2, “Inhibitors of glutaminyl cyclase” (Probiodrug AG, priority 2006, dated 2010).
